Values of other authors, collected in patent US7780990B2, “Combination therapeutic compositions and method of use” (priority 2005, dated 2010).

Settings: intravenous infusion 30 g over 30 min, patients with type II diabetes

Compound: C[N+](C)(C)CC(=O)O [betaine, glycine betaine]
- blood pressure: reduces blood pressure
- haemodynamic functions: improves haemodynamic functions
